Data taken from patent US10821115B2, “Compounds that inhibit Mcl-1 protein” (priority 2017, dated 2020).
Read-outs that look alike come from different tables or passages of the source.

Columns and labels:
[1] = test system: human multiple myeloma cell line, OPM-2; test: Cell viability assay (OPM-2 10 FBS), CellTiter-Glo; format: cell-based
Summary of the method: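 Serially diluted test compounds are incubated 16 h with cells (3000/well) in RPMI 1640 supplemented with 10% FBS. Viability is then measured by luminescence and IC50 calculated by 4-parameter logistic fit.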

[2] = molecular target: recombinant human Mcl-1 (residues 171-327) / Bim interaction (Homo sapiens (Human), UniProt Q07820); test: biochemical; format: binding; conditions: read-out: Mcl-1 HTRF IC50
[3] = Homo sapiens, OPM-2, 16 h, read-out: OPM-2 10% FBS IC50 IP, OPM-2 cells, 10% FBS, 16 h, CellTiter-Glo
[4] = TR-FRET, Mcl-1(171-327) / biotin-Bim (51-76)
[5] = Homo sapiens, OPM-2, 16 h, read-out: OPM-2 10% FBS IC50 IP, OPM-2 cells, 10% FBS, 16 h incubation
[6] = 0.1 nM Mcl-1(171-327), 0.05 nM biotin-Bim (51-76)
[7] = read-out: OPM-2 10% FBS IC50 IP, OPM-2 cells, 10% FBS, 16 h, CellTiter-Glo

Sequence of recombinant human Mcl-1 (residues 171-327) / Bim interaction (Q07820 171-327): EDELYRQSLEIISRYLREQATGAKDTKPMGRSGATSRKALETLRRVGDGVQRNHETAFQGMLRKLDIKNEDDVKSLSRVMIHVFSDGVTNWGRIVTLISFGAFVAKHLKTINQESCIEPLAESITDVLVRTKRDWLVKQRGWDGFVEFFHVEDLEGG

Compound | IC50 [1, 3] [nM] | IC50 [2, 4] [nM] | IC50 [1, 5] [nM] | IC50 [2, 6] [nM] | IC50 [1, 7] [nM]
CO[C@@]1(C(F)F)/C=C/C[C@H](C)[C@@H](C)S(=O)(=O)NC(=O)c2ccc3c(c2)N(C[C@@H]2CC[C@H]21)C[C@@]1(CCCc2cc(Cl)ccc21)CO3 [Example 100071, (1S,3′R,6′R,7′S,8′E,11′S,12′R)-6-chloro-7′-(difluoromethyl)-7′-methoxy-11′,12′-dimethyl-3,4-dihydro-2H,15′H-spiro[naphthalene-1,22′-[20]oxa[13]thia[1,14]diazatetracyclo [14.7.2.0~3,6~.0~19,24~]pentacosa[8,16,18,24]tetraen]-15′-one 13′,13′-dioxide] | 588 | 1.54 |  |  | 
CO[C@]1(CN2CCN3CCOC[C@@H]3C2)/C=C/C[C@H](C)[C@@H](CC2CCC2)S(=O)(=O)NC(=O)c2ccc3c(c2)N(C[C@@H]2CC[C@H]21)C[C@@]1(CCCc2cc(Cl)ccc21)CO3 [Example 38] |  |  | 489 | 0.342 | 
C[C@@H]1[C@@H](C)C/C=C/[C@@](O)(CS(C)(=O)=O)[C@@H]2CC[C@H]2CN2C[C@@]3(CCCc4cc(Cl)ccc43)COc3ccc(cc32)C(=O)NS1(=O)=O [Example 100073, (1S,3′R,6′R,7′S,8′E,11′S,12′R)-6-chloro-7′-hydroxy-11′,12′-dimethyl-7′-((methylsulfonyl)methyl)-3,4-dihydro-2H,15′H-spiro[naphthalene-1,22′-[20]oxa[13]thia[1,14]diazatetracyclo [14.7.2.0~3,6~.0~19,24~]pentacosa[8,16,18,24]tetraen]-15′-one 13′,13′-dioxide] |  | 0.346 |  |  | 1200
CO[C@@]1(c2cccnc2)/C=C/C[C@H](C)[C@@H](C)S(=O)(=O)NC(=O)c2ccc3c(c2)N(C[C@@H]2CC[C@H]21)C[C@@]1(CCCc2cc(Cl)ccc21)CO3 [Example 100391, (1S,3′R,6′R,7′S,8′E,11′S,12′R)-6-chloro-7′-methoxy-11′,12′-dimethyl-7′-(3-pyridinyl)-3,4-dihydro-2H,15′H-spiro[naphthalene-1,22′-[20]oxa[13]thia[1,14]diazatetracyclo [14.7.2.0~3,6~.0~19,24~]pentacosa[8,16,18,24]tetraen]-15′-one 13′,13′-dioxide] | 282 | 0.441 |  |  | 
CO[C@@]1(CN2CC(C)(N(C)C)C2)/C=C/[C@H](C)[C@H](C)CS(=O)(=O)NC(=O)c2ccc3c(c2)N(C[C@@H]2CC[C@H]21)C[C@@]1(CCCc2cc(Cl)ccc21)CO3 [Example 162, (1S,3′R,6′R,7′S,8′E,10′S,11′S)-6-chloro-7′-((3-(dimethylamino)-3-methyl-1-azetidinyl)methyl)-7′-methoxy-10′,11′-dimethyl-3,4-dihydro-2H,15′H-spiro[naphthalene-1,22′-[20]oxa[13]thia[1,14]diazatetracyclo [14.7.2.0~3,6~.0~19,24~]pentacosa[8,16,18,24]tetraen]-15′-one 13′,13′-dioxide] |  |  | 55 | 0.072 | 
C[C@@H]1[C@@H](C)CCC[C@](CO)(OCCN2CCOCC2)[C@@H]2CC[C@H]2CN2C[C@@]3(CCCc4cc(Cl)ccc43)COc3ccc(cc32)C(=O)NS1(=O)=O [Example 100284, (1S,3′R,6′R,7′S,11′S,12′R)-6-chloro-7′-(hydroxymethyl)-11′,12′-dimethyl-7′-(2-(4-morpholinyl)ethoxy)-3,4-dihydro-2H,15′H-spiro[naphthalene-1,22′-[20]oxa[13]thia[1,14]diazatetracyclo [14.7.2.0~3,6~.0~19,24~]pentacosa[16,18,24]trien]-15′-one 13′,13′-dioxide] |  | 0.285 |  |  | 396
CC(C)CO[C@]1(CN2CCN(C3COC3)CC2)/C=C/C[C@H](C)[C@@H](C)S(=O)(=O)NC(=O)c2ccc3c(c2)N(C[C@@H]2CC[C@H]21)C[C@@]1(CCCc2cc(Cl)ccc21)CO3 [Example 355] |  |  | 272 | 0.172 | 
CO[C@]1(CN(C)C)/C=C/C[C@H](C)[C@@H](C)S(=O)(=O)NC(=O)c2ccc3c(c2)N(C[C@@H]2CC[C@H]21)C[C@@]1(CCCc2cc(Cl)ccc21)CO3 [Example 69, (1S,3′R,6′R,7′R,8′E,11′S,12′R)-6-chloro-7′-((dimethylamino)methyl)-7′-methoxy-11′,12′-dimethyl-3,4-dihydro-2H,15′H-spiro[naphthalene-1,22′-[20]oxa[13]thia[1,14]diazatetracyclo [14.7.2.0~3,6~.0~19,24~]pentacosa[8,16,18,24]tetraen]-15′-one 13′,13′-dioxide] |  |  | 1480 | 3.83 | 
COCCN(C)C(=O)C[C@]1(O)/C=C/C[C@H](C)[C@@H](C)S(=O)(=O)NC(=O)c2ccc3c(c2)N(C[C@@H]2CC[C@H]21)C[C@@]1(CCCc2cc(Cl)ccc21)CO3 [Example 100277, 2-((1S,3′R,6′R,7′S,8′E,11′S,12′R)-6-chloro-7′-hydroxy-11′,12′-dimethyl-13′,13′-dioxido-15′-oxo-3,4-dihydro-2H-spiro[naphthalene-1,22′-[20]oxa[13]thia[1,14]diazatetracyclo [14.7.2.0~3,6~.0~19,24~]pentacosa[8,16,18,24]tetraen]-7′-yl)-N-(2-methoxyethyl)-N-methylacetamide] | 448 | 0.266 |  |  | 
CC[C@@H]1CC/C=C/[C@@](OC)(C2SCCCS2)[C@@H]2CC[C@H]2CN2C[C@@]3(CCCc4cc(Cl)ccc43)COc3ccc(cc32)C(=O)NS1(=O)=O (single isomer, unassigned) [Example 100579] | 757 | 0.214 |  |  | 
CO[C@@]1(CN2CC3(COC3)C2)/C=C/C[C@H](C)[C@@H](C)S(=O)(=O)NC(=O)c2ccc3c(c2)N(C[C@@H]2CC[C@H]21)C[C@@]1(CCCc2cc(Cl)ccc21)CO3 [Example 203, (1S,3′R,6′R,7′S,8′E,11′S,12′R)-6-chloro-7′-methoxy-11′,12′-dimethyl-7′-(2-oxa-6-azaspiro[3.3]hept-6-ylmethyl)-3,4-dihydro-2H,15′H-spiro[naphthalene-1,22′-[20]oxa[13]thia[1,14]diazatetracyclo [14.7.2.0~3,6~.0~19,24~]pentacosa[8,16,18,24]tetraen]-15′-one 13′,13′-dioxide] |  |  | 112 | 0.113 | 
C[C@@H]1[C@@H](C)CCC[C@@](O)(CCN2CCCCC2)[C@@H]2CC[C@H]2CN2C[C@@]3(CCCc4cc(Cl)ccc43)COc3ccc(cc32)C(=O)NS1(=O)=O [Example 100092, (1S,3′R,6′R,7′R,11′S,12′R)-6-chloro-7′-hydroxy-11′,12′-dimethyl-7′-(2-(1-piperidinyl)ethyl)-3,4-dihydro-2H,15′H-spiro[naphthalene-1,22′-[20]oxa[13]thia[1,14]diazatetracyclo [14.7.2.0~3,6~.0~19,24~]pentacosa[16,18,24]trien]-15′-one 13′,13′-dioxide] |  | 4.02 |  |  | 2210
CO[C@]1(CN2CCN(CCF)CC2)/C=C/C[C@H](C)[C@@H](C)S(=O)(=O)NC(=O)c2ccc3c(c2)N(C[C@@H]2CC[C@H]21)C[C@@]1(CCCc2cc(Cl)ccc21)CO3 [Example 96, (1S,3′R,6′R,7′R,8′E,11′S,12′R)-6-chloro-7′-((4-(2-fluoroethyl)-1-piperazinyl)methyl)-7′-methoxy-11′,12′-dimethyl-3,4-dihydro-2H,15′H-spiro[naphthalene-1,22′-[20]oxa[13]thia[1,14]diazatetracyclo [14.7.2.0~3,6~.0~19,24~]pentacosa[8,16,18,24]tetraen]-15′-one 13′,13′-dioxide] |  |  | 111 | 0.114 | 
COCC[C@@H]1[C@@H](C)C/C=C/[C@](OC)(C2SCCCS2)[C@@H]2CC[C@H]2CN2C[C@@]3(CCCc4cc(Cl)ccc43)COc3ccc(cc32)C(=O)NS1(=O)=O [Example 100515, (1S,3′R,6′R,7′R,8′E,11′S,12′R)-6-chloro-7′-(1,3-dithian-2-yl)-7′-methoxy-12′-(2-methoxyethyl)-11′-methyl-3,4-dihydro-2H,15′H-spiro[naphthalene-1,22′-[20]oxa[13]thia[1,14]diazatetracyclo [14.7.2.0~3,6~.0~19,24~]pentacosa[8,16,18,24]tetraen]-15′-one 13′,13′-dioxide] | 585 | 0.132 |  |  | 
CO[C@@]1(CN2CCN3C(=O)OC[C@@H]3C2)/C=C/C[C@H](C)[C@@H](C)S(=O)(=O)NC(=O)c2ccc3c(c2)N(C[C@@H]2CC[C@H]21)C[C@@]1(CCCc2cc(Cl)ccc21)CO3 [Example 63, (1S,3′R,6′R,7′S,8′E,11′S,12′R)-6-chloro-7′-methoxy-11′,12′-dimethyl-7′-(((8aS)-3-oxotetrahydro[1,3]oxazolo[3,4-a]pyrazin-7(1H)-yl)methyl)-3,4-dihydro-2H,15′H-spiro[naphthalene-1,22′-[20]oxa[13]thia[1,14]diazatetracyclo [14.7.2.0~3,6~.0~19,24~]pentacosa[8,16,18,24]tetraen]-15′-one 13′,13′-dioxide] |  |  | 582 | 0.173 | 
CO[C@]1(CN2CCN(C3CC3)CC2)/C=C/C[C@H](C)[C@@H](C)S(=O)(=O)NC(=O)c2ccc3c(c2)N(C[C@@H]2CC[C@H]21)C[C@@]1(CCCc2cc(Cl)ccc21)CO3 [Example 91, (1S,3′R,6′R,7′R,8′E,11′S,12′R)-6-chloro-7′-((4-cyclopropyl-1-piperazinyl)methyl)-7′-methoxy-11′,12′-dimethyl-3,4-dihydro-2H,15′H-spiro[naphthalene-1,22′-[20]oxa[13]thia[1,14]diazatetracyclo [14.7.2.0~3,6~.0~19,24~]pentacosa[8,16,18,24]tetraen]-15′-one 13′,13′-dioxide] |  |  | 559 | 0.203 | 
C[C@@H]1[C@@H](C)C/C=C/[C@@](C)(O)[C@@H]2CC[C@H]2CN2C[C@@]3(CCCc4cc(Cl)ccc43)COc3ccc(nc32)C(=O)NS1(=O)=O (single isomer, unassigned) [Example 100601] | 239 | 0.114 |  |  | 
